{
  "source": "ChEMBL document CHEMBL4145459",
  "about": "“Synthesis of (3S,4S,5S)-trihydroxylpiperidine derivatives as enzyme stabilizers to improve therapeutic enzyme activity in Fabry patient cell lines” (Eur J Med Chem, 2018)",
  "key": {"Alpha-galactosidase A": {"biological_target": "T1, Alpha-galactosidase A (Homo sapiens, UniProt P06280)", "T1 sequence (P06280 whole entry)": "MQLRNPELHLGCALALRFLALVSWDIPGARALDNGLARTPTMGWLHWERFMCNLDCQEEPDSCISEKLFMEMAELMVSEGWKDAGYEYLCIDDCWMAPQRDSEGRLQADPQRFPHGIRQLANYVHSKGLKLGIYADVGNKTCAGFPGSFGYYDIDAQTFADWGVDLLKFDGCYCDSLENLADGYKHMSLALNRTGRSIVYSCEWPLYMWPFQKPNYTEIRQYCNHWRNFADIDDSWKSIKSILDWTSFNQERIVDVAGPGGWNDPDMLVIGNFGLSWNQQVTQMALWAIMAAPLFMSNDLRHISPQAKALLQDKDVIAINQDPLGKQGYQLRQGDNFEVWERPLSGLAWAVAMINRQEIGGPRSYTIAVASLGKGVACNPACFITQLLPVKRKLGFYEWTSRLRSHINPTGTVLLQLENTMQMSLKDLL", "test": "Competitive inhibition of human recombinant alpha-galactosidase A using 4-MU-alpha-d-galactopyranoside as substrate by Lineweaver-Burk plot method"}, "[1]": {"biological_target": "T2, Alpha-galactosidase A (Homo sapiens) (UniProt P06280)", "T2 sequence (whole entry)": "T1 sequence (P06280 whole entry)", "test": "Stabilization of human recombinant alpha-galactosidase A using 4-MU-alpha-d-galactopyranoside as substrate assessed as inhibition of thermal-induced denaturation at 100 uM preincubated for 10 to 30 mins followed by substrate addition and measured after 15 mins by fluorescence assay"}, "[2]": {"biological_target": "T2, Alpha-galactosidase A (Homo sapiens)", "test": "Stabilization of human recombinant alpha-galactosidase A using 4-MU-alpha-d-galactopyranoside as substrate assessed as inhibition of thermal-induced denaturation preincubated for 10 to 30 mins followed by substrate addition and measured after 15 mins by fluorescence assay"}},
  "note": "The source made the active and inactive calls. No cut-off for these calls is given here.",
  "data": [
    {"smiles": "O=C(/C=C/c1cccc(Br)c1)NC[C@H]1NC[C@H](O)[C@@H](O)[C@H]1O", "values": [
      {"measurement": "Ki", "setting": "Alpha-galactosidase A", "value": 3.5, "unit": "µM"}
    ]},
    {"smiles": "NC[C@@H]1NC[C@H](O)[C@H](O)[C@H]1O", "values": [
      {"measurement": "Activity", "setting": "[1]", "value": "inactive"}
    ]},
    {"smiles": "NC[C@H]1NC[C@H](O)[C@@H](O)[C@H]1O", "values": [
      {"measurement": "Activity", "setting": "[2]", "value": "Dose-dependent effect"}
    ]},
    {"smiles": "NC[C@H]1NC[C@H](O)[C@H](O)[C@H]1O", "values": [
      {"measurement": "Activity", "setting": "[1]", "value": "inactive"}
    ]},
    {"smiles": "NC[C@@H]1NC[C@H](O)[C@@H](O)[C@H]1O", "values": [
      {"measurement": "Activity", "setting": "[1]", "value": "inactive"}
    ]}
  ]
}
